In patent publication US11208404B2 (PERENNA PHARMACEUTICALS, INC., priority 2017, dated 2021):
pIC50: −log10 of the molar value. Like-named read-outs stand apart in the source and are kept apart here.

Biological target: ALCAT1 (Homo sapiens (Human), UniProt Q6UWP7)
Assay: In vitro acyltransferase assay for ALCAT1 inhibitors
Format: biochemical
Conditions: for inhibition at 1 µM / % inh @ 1 μM: 1 μM compound; for inhibition at 1 µM / inhibition at 10 µM / % inh @ 1 μM: in vitro enzymatic assay; for inhibition at 10 µM: 10 μM compound; for pIC50: ALCAT1 enzyme activity
Excerpt: The human ALCAT1 protein were expressed in Spodoptera frugiperda (Sf9) insect cells by using a Bac-to-Bac baculovirus expression system (Invitrogen) according to the manufacturer's instruction. High-titer recombinant baculovirus expressing the human ALCAT1 protein was generated by several rounds of viral amplification. The Sf9 cells were typically infected with recombinant baculovirus for 3 days, harvested in ice-cold phosphate-buffered saline (PBS), and homogenized in 20 mm NaCl by going through French press. The total cell lysates were centrifuged at 10,000×g for 1 hours at 4° C. to eliminate the nucleus fraction, followed by ultracentrifugation at 100,000×g to pallet the membrane fraction. The membrane fraction was resuspended in enzymatic buffer that contain 10% glycerol, quantified for protein concentration, aliquoted, and stored at −80° C.
ALCAT1 enzymatic activity was determined by measuring the conversion of monolysocardiolipin (MLCL) to cardiolipin or lysophosphatidylglycerol (LPG) to phosphatidylglycerol (PG) in an enzymatic reaction mixture that contained 50 mm Tris/HCl, pH 7.0, 100 μm lysophospholipids, 25 μm [^14C]acyl-CoA (50 mCi/mmol, American Radiolabeled Chemicals, Inc), and membrane fraction (0.5-2.5 μg) in a total volume of 200 μl. The reaction was incubated at room temperature for 30 min. The lipids were extracted will chloroform, dried, and separated by thin layer chromatography (TLC) with chloroform:hexane:methanol:acetic acid (50:30:10:5, v/v) or chloroform:methanol:water (65:25:4, v/v). After separation, TLC plates were exposed to a Phosphorlmager screen to visualize the radiolabeled products with a Molecular Dynamics Typhoon Scanner (Sunnyvale, Calif.). In some experiments, NBD-CoA was used at 100 μM to replace the [^14C]acyl-CoA in the enzymatic reaction. All quantitative data were expressed as mean±S.E. Statistical analyses for differences between two groups were carried out using a Student's t test.
Compound inhibitors for ALCAT1 enzyme were analyzed by an in vitro enzymatic assay as detailed above. Compound inhibitors were added to the enzymatic mixture at 1-20 μM concentrations before the start of the acyltransferase reaction.
Where multiple measurements were taken this is indicated by a “/” between multiple values.
IC50 values for each compound were analyzed in triplicates, and calculated by GraphPad software.

[1] = triplicates, GraphPad, read-out: IC50

Chain of ALCAT1 (Q6UWP7 whole entry): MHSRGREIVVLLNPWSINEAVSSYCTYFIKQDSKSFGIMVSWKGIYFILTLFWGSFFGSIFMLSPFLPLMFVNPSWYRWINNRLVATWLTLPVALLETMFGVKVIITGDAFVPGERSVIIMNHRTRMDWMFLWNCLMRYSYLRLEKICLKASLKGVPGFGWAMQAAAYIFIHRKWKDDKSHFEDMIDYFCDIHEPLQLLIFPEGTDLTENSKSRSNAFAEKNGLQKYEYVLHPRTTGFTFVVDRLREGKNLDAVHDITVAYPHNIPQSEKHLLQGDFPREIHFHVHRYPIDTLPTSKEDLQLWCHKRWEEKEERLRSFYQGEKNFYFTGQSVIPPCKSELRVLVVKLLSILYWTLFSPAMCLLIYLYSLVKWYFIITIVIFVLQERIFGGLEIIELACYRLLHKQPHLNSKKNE

Row | SMILES | inhibition at 1 µM | inhibition at 10 µM | pIC50 [1] | pIC50 (read-out: IC50 values (upper bounds)) | % inh @ 1 μM
1 | COC(=O)c1ccc(OC)c(C(=O)Nc2cccc(-c3nnc(-c4ccco4)o3)c2)c1 [Compound 115] | 51% | 53% |  |  | 
2 | CCCOc1ccc(Br)cc1C(=O)Nc1cccc(-c2nnc(-c3ccco3)o2)c1 [Compound 119, 5-Bromo-N-(3-(5-(furan-2-yl)-1,3,4-oxadiazol-2-yl)phenyl)-2-propoxybenzamide] | 92% | 95% | 7.05 |  | 
3 | COc1ccc(Br)cc1C(=O)Nc1cccc(-c2nnc(-c3ccco3)o2)c1 [Compound 120, 5-Bromo-N-(3-(5-(furan-2-yl)-1,3,4-oxadiazol-2-yl)phenyl)-2-methoxybenzamide] | 94% | 100% | 7.42 |  | 
4 | CCOc1ccc(Cl)cc1C(=O)Nc1cccc(-c2nnc(-c3ccco3)o2)c1 [Compound 122, 5-Chloro-2-ethoxy-N-(3-(5-(furan-2-yl)-1,3,4-oxadiazol-2-yl)phenyl)benzamide] | 100% | 100% | 7.41 |  | 
5 | CCCOc1ccc(Cl)cc1C(=O)Nc1cccc(-c2nnc(-c3ccco3)o2)c1 [Compound 123, 5-Chloro-N-(3-(5-(furan-2-yl)-1,3,4-oxadiazol-2-yl)phenyl)-2-propoxybenzamide] | 90% | 100% | 7.06 |  | 
6 | COc1ccc(Cl)cc1C(=O)Nc1cccc(-c2nnc(-c3ccco3)o2)c1 [Compound 124, 5-Chloro-N-(3-(5-(furan-2-yl)-1,3,4-oxadiazol-2-yl)phenyl)-2-methoxybenzamide] | 92% | 100% | 7.21 |  | 
7 | CCOc1ccc(F)cc1C(=O)Nc1cccc(-c2nnc(-c3ccco3)o2)c1 [Compound 125, 2-Ethoxy-5-fluoro-N-(3-(5-(furan-2-yl)-1,3,4-oxadiazol-2-yl)phenyl)benzamide] | 92% | 97% | 7.17 |  | 
8 | CCCOc1ccc(F)cc1C(=O)Nc1cccc(-c2nnc(-c3ccco3)o2)c1 [Compound 126] | 83% | 100% | 6.96 |  | 
9 | COc1ccc(F)cc1C(=O)Nc1cccc(-c2nnc(-c3ccco3)o2)c1 [Compound 127] | 85% | 100% | 6.68 |  | 
10 | COc1ccccc1C(=O)Nc1cc(-c2nnc(-c3ccco3)o2)ccc1F [Compound 128, N-(2-Fluoro-5-(5-(furan-2-yl)-1,3,4-oxadiazol-2-yl)phenyl)-2-methoxybenzamide] | 100% | 100% | 7.54 | > 7.00 | 
11 | O=C(Nc1cc(F)cc(-c2nnc(-c3ccco3)o2)c1)c1ccccc1F [Compound 130] | 50% |  |  |  | 57%
12 | Cc1cc(NC(=O)c2ccccc2F)cc(-c2nnc(-c3ccco3)o2)c1 [Compound 132] | 26% |  |  |  | 39%
13 | COc1cc(NC(=O)c2ccccc2F)cc(-c2nnc(-c3ccco3)o2)c1 [Compound 133] | 19% |  |  |  | 17%
14 | O=C(Nc1cccc(-c2nnc(-c3ccco3)s2)c1)c1ccccc1F [Compound 135] | 56% |  |  |  | 62%
15 | COc1ccc(NC(=O)c2ccccc2F)cc1-c1nnc(-c2ccco2)o1 [Compound 136] | 28% |  |  |  | 23%
16 | O=C(Nc1cccc(-c2nnc(-c3cnco3)o2)c1)c1ccccc1F [Compound 137] | 37% |  |  |  | 48%
17 | O=C(Nc1cc(-c2nnc(-c3ccno3)o2)ccc1F)c1ccccc1F [Compound 139] | 50% |  |  |  | 48%
18 | COc1c(NC(=O)c2ccccc2F)cccc1-c1nnc(-c2ccco2)o1 [Compound 140] | 29% |  |  |  | 
19 | O=C(Nc1cccc(-c2nnc(-c3ccco3)o2)c1)c1cc(Br)ccc1I [Compound 141] | 65% | 67% |  |  | 
20 | O=C(Nc1cccc(-c2nnc(-c3ccco3)o2)c1)c1c(F)cccc1F [Compound 143] | 13% | 17% |  |  | 
21 | O=C(Nc1cccc(-c2nnc(-c3ccco3)o2)c1)c1cc(F)c(F)cc1F [Compound 144] | 73% | 92% | 6.89 |  | 
22 | O=C(Nc1cccc(-c2nnc(-c3ccco3)o2)c1)c1c(F)cccc1Cl [Compound 145] | 9% | 38% |  |  | 

Row | SMILES | inhibition at 1 µM | inhibition at 10 µM | pIC50 [1] | pIC50 (read-out: IC50 values (upper bounds)) | % inh @ 1 μM
23 | O=C(Nc1cccc(-c2nnc(-c3ccco3)o2)c1)c1cccc(Cl)c1Cl [Compound 150] | 72% | 92% | 6.39 |  | 
24 | COc1cccc(C(=O)Nc2cccc(-c3nnc(-c4ccco4)o3)c2)c1OC [Compound 169] | 74% | 93% | 6.33 |  | 
25 | COc1cccc(OC)c1C(=O)Nc1cccc(-c2nnc(-c3ccco3)o2)c1 [Compound 170] | 20% | 27% |  |  | 
26 | COc1ccc(OC)c(C(=O)Nc2cccc(-c3nnc(-c4ccco4)o3)c2)c1 [Compound 171] | 79% | 100% | 6.46 |  | 
27 | CC(=O)Nc1ccccc1C(=O)Nc1cccc(-c2nnc(-c3ccco3)o2)c1 [Compound 172] | 6% | 26% |  |  | 
28 | CCOc1ccccc1C(=O)Nc1cccc(-c2nnc(-c3ccco3)o2)c1 [Compound 174] | 96% | 100% | 6.96 |  | 
29 | CCCOc1ccccc1C(=O)Nc1cccc(-c2nnc(-c3ccco3)o2)c1 [Compound 175] | 90% | 100% | 6.82 |  | 
30 | Cc1ccc(F)c(C(=O)Nc2cccc(-c3nnc(-c4ccco4)o3)c2)c1 [Compound 176] | 73% | 100% | 6.66 |  | 
31 | O=C(Nc1cccc(-c2nnc(-c3ccco3)o2)c1)c1ccc2c(c1)OCO2 [Compound 177] | 3% | 1% |  |  | 
32 | O=C(Nc1cccc(-c2nnc(-c3ccco3)o2)c1)c1cccc2c1OCO2 [Compound 178] | 27% |  |  |  | 
33 | COc1cccc(F)c1C(=O)Nc1cccc(-c2nnc(-c3ccco3)o2)c1 [Compound 179] | 17% | 41% |  |  | 
34 | CSc1ccccc1C(=O)Nc1cccc(-c2nnc(-c3ccco3)o2)c1 [Compound 181] | 34% | 68% |  |  | 
35 | COc1c(C)cccc1C(=O)Nc1cccc(-c2nnc(-c3ccco3)o2)c1 [Compound 182] | 33% |  |  |  | 
36 | O=C(Nc1cccc(-c2nnc(-c3ccco3)o2)c1)c1cccc(Cl)c1F [Compound 186] | 92% | 100% | 6.41 |  | 
37 | O=C(Nc1cccc(-c2nnc(-c3ccco3)o2)c1)c1cc(Br)ccc1F [Compound 188] | 93% | 100% | 6.19 |  | 
38 | O=C(Nc1cccc(-c2nnc(-c3ccco3)o2)c1)c1cc(Cl)ccc1F [Compound 189] | 92% | 100% | 6.49 |  | 
39 | Cc1cccc(C(=O)Nc2cccc(-c3nnc(-c4ccco4)o3)c2)c1F [Compound 190] | 80% | 100% | 6.54 |  | 
40 | O=C(Nc1cccc(-c2nnc(-c3ccco3)o2)c1)c1cccc(Br)c1F [Compound 191] | 82% | 100% | 6.48 |  | 
41 | COc1c(Br)cccc1C(=O)Nc1cccc(-c2nnc(-c3ccco3)o2)c1 [Compound 192, 3-Bromo-N-(3-(5-(furan-2-yl)-1,3,4-oxadiazol-2-yl)phenyl)-2-methoxybenzamide] | 89% |  | 7.04 |  | 93%
42 | COc1c(Cl)cccc1C(=O)Nc1cccc(-c2nnc(-c3ccco3)o2)c1 [Compound 193, 3-Chloro-N-(3-(5-(furan-2-yl)-1,3,4-oxadiazol-2-yl)phenyl)-2-methoxybenzamide] | 92% | 90% | 7.17 |  | 
43 | O=C(Nc1cccc(-c2nnc(-c3ccco3)o2)c1)c1cc(F)ccc1F [Compound 195] | 70% | 88% | 6.44 |  | 
44 | O=C(Nc1cccc(-c2nnc(-c3ccco3)o2)c1)c1cccc(F)c1F [Compound 196] | 68% | 97% | 6.47 |  | 
